Results from patent publication US8791102B2, “Acetanilide sphingosine-1-phosphate receptor antagonists” (Exelixis, Inc., priority 2008, dated 2014).

The compounds below were run against T1, human S1P1 receptors (Homo sapiens, UniProt P21453) (assay: S1P1R antagonist assay (fluorescent membrane potential dye, cAMP readout)). Details: HEK293 cells expressing human S1P1 receptors and CNG channel; 500 nM NECA; S1P1R agonist 10 nM; 90 minutes; read-out: EC50 or IC50 value.
T1 construct: host or cells: HEK293
T1 sequence (P21453 whole entry): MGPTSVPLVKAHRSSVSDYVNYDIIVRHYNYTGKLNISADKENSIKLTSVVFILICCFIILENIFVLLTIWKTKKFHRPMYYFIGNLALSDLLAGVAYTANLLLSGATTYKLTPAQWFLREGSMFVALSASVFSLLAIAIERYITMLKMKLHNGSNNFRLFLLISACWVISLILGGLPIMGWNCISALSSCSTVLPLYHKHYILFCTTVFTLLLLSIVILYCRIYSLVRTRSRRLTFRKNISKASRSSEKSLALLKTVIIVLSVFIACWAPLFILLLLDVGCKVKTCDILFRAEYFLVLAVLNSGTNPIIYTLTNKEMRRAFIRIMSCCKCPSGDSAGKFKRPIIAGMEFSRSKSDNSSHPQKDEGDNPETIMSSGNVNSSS
Type: cell-based

| SMILES | IC50 |
| --- | --- |
| O=C(Cc1ccccn1)N[C@@H](COCc1ccccc1)C(=O)Nc1ccc(Oc2ccc(F)cc2)cc1 [Compound 246, (S)-3-(benzyloxy)-N-(4-(4-fluorophenoxy)phenyl)-2-(2-(pyridin-2-yl)acetamido)propanamide] | ≤ 300 nM |
| O=C(Cc1cccnc1)N[C@@H](COCc1ccccc1)C(=O)Nc1ccc(Oc2ccc(F)cc2)cc1 [Compound 247, (S)-3-(benzyloxy)-N-(4-(4-fluorophenoxy)phenyl)-2-(2-(pyridin-3-yl)acetamido)propanamide] | ≤ 300 nM |
| CC(C)=CCC[C@H](C)CC(=O)N[C@@H](COCc1ccccc1)C(=O)Nc1ccc(Oc2ccc(F)cc2)cc1 [Compound 248, (S)—N—((S)-3-(benzyloxy)-1-(4-(4-fluorophenoxy)phenylamino)-1-oxopropan-2-yl)-3,7-dimethyloct-6-enamide] | 300 to 1000 nM |
| O=C(Cc1ccccc1)N[C@@H](COCc1ccccc1)C(=O)Nc1ccc(Oc2ccc(F)cc2)cc1 [Compound 249, (S)-3-(benzyloxy)-N-(4-(4-fluorophenoxy)phenyl)-2-(2-phenylacetamido)propanamide] | 300 to 1000 nM |
| O=C(Cc1cncnc1)N[C@@H](COCc1ccccc1)C(=O)Nc1ccc(Oc2ccc(F)cc2)cc1 [Compound 250, (S)-3-(benzyloxy)-N-(4-(4-fluorophenoxy)phenyl)-2-(2-(pyrimidin-5-yl)acetamido)propanamide] | ≤ 300 nM |
| O=C(Nc1ccc(Oc2ccc(F)cc2)cc1)[C@@H]1C[C@@H](c2ccccc2)CN1C(=O)Cc1cnc[nH]1 [Compound 251, (2S,4S)-1-(2-(1H-imidazol-5-yl)acetyl)-N-(4-(4-fluorophenoxy)phenyl)-4-phenylpyrrolidine-2-carboxamide] | ≤ 300 nM |
| O=C(Nc1ccc(Oc2ccc(F)cc2)cc1)[C@@H]1C[C@@H](OCc2ccccc2)CN1C(=O)Cn1cncn1 [Compound 252, (2S,4R)-1-(2-(1H-1,2,4-triazol-1-yl)acetyl)-4-(benzyloxy)-N-(4-(4-fluorophenoxy)phenyl)pyrrolidine-2-carboxamide] | ≤ 300 nM |
| O=C(N[C@@H]1C[C@@H](C(=O)Nc2ccc(Oc3ccc(F)cc3)cc2)N(C(=O)Cc2cnc[nH]2)C1)OCc1ccccc1 [Compound 253, benzyl (3R,5S)-1-(2-(1H-imidazol-5-yl)acetyl)-5-(4-(4-fluorophenoxy)phenylcarbamoyl)pyrrolidin-3-ylcarbamate] | ≤ 300 nM |
| CC(=O)NCCC[C@H](NC(=O)Cn1cncn1)C(=O)Nc1ccc(Oc2ccc(F)cc2)cc1 [Compound 254, (S)-2-(2-(1H-1,2,4-triazol-1-yl)acetamido)-5-acetamido-N-(4-(4-fluorophenoxy)phenyl)pentanamide] | ≤ 300 nM |
| CC(C)(C(=O)N[C@@H](COCc1ccccc1)C(=O)Nc1ccc(Oc2ccc(F)cc2)cc1)n1cncn1 [Compound 255, (S)-3-(benzyloxy)-N-(4-(4-fluorophenoxy)phenyl)-2-(2-methyl-2-(1H-1,2,4-triazol-1-yl)propanamido)propanamide] | 300 to 1000 nM |
| Cc1nc(C)n(CC(=O)N[C@@H](COCc2ccccc2)C(=O)Nc2ccc(Oc3ccc(F)cc3)cc2)n1 [Compound 256, (S)-3-(benzyloxy)-2-(2-(3,5-dimethyl-1H-1,2,4-triazol-1-yl)acetamido)-N-(4-(4-fluorophenoxy)phenyl)propanamide] | ≤ 300 nM |
| O=C(Nc1ccc(Oc2ccc(F)cc2)cc1)[C@@H]1CN(C(=O)OCc2ccccc2)CCN1C(=O)Cc1c[nH]cn1 [Compound 257, (S)-benzyl 4-(2-(1H-imidazol-4-yl)acetyl)-3-(4-(4-fluorophenoxy)phenylcarbamoyl)piperazine-1-carboxylate] | 300 to 1000 nM |
| Cc1n[nH]c(C)c1CC(=O)N[C@@H](COCc1ccc(F)cc1)C(=O)Nc1ccc(Oc2ccc(F)cc2)cc1 [Compound 258, (S)-2-(2-(3,5-dimethyl-1H-pyrazol-4-yl)acetamido)-3-(4-fluorobenzyloxy)-N-(4-(4-fluorophenoxy)phenyl)propanamide] | ≤ 300 nM |
| O=C(Nc1ccc(Oc2ccc(F)cc2)cc1)[C@@H]1C[C@@H](Oc2ccccc2)CN1C(=O)Cn1cncn1 [Compound 259, (2S,4R)-1-(2-(1H-1,2,4-triazol-1-yl)acetyl)-N-(4-(4-fluorophenoxy)phenyl)-4-phenoxypyrrolidine-2-carboxamide] | 300 to 1000 nM |
| O=C(Nc1ccc(Oc2ccc(F)cc2)cc1)[C@@H]1C[C@@H](N2Cc3ccccc3C2)CN1C(=O)Cn1cncn1 [Compound 260, (2S,4R)-1-(2-(1H-1,2,4-triazol-1-yl)acetyl)-N-(4-(4-fluorophenoxy)phenyl)-4-(isoindolin-2-yl)pyrrolidine-2-carboxamide] | 300 to 1000 nM |
| O=C(Nc1ccc(Oc2ccc(F)cc2)cc1)[C@@H]1CN(Cc2ccccc2)CCN1C(=O)Cn1cncn1 [Compound 261, (S)-1-(2-(1H-1,2,4-triazol-1-yl)acetyl)-4-benzyl-N-(4-(4-fluorophenoxy)phenyl)piperazine-2-carboxamide] | 300 to 1000 nM |
| O=C(Nc1ccc(Oc2ccc(F)cc2)cc1)[C@@H]1C[C@@H](CNCc2ccccc2)CN1C(=O)Cn1cncn1 [Compound 262, (2S,4S)-1-(2-(1H-1,2,4-triazol-1-yl)acetyl)-4-((benzylamino)methyl)-N-(4-(4-fluorophenoxy)phenyl)pyrrolidine-2-carboxamide] | 300 to 1000 nM |
| O=C(Nc1ccc(Oc2ccc(F)cc2)cc1)[C@@H]1C[C@@H](Cc2cccc(Cl)c2)CN1C(=O)Cn1ccnn1 [Compound 263, (2S,4R)-1-(2-(1H-1,2,3-triazol-1-yl)acetyl)-4-(3-chlorobenzyl)-N-(4-(4-fluorophenoxy)phenyl)pyrrolidine-2-carboxamide] | ≤ 300 nM |
| O=C(Nc1ccc(Oc2ccc(F)cc2)cc1)[C@@H]1C[C@@H](Cc2ccccc2F)CN1C(=O)Cn1ccnn1 [Compound 264, (2S,4R)-1-(2-(1H-1,2,3-triazol-1-yl)acetyl)-4-(2-fluorobenzyl)-N-(4-(4-fluorophenoxy)phenyl)pyrrolidine-2-carboxamide] | ≤ 300 nM |
| CC1CN(CC(=O)N[C@@H](COCc2ccccc2)C(=O)Nc2ccc(Oc3ccc(F)cc3)cc2)CC(C)O1 (stereo partly drawn) [Compound 265, (2S)-3-(benzyloxy)-2-(2-(2,6-dimethylmorpholino)acetamido)-N-(4-(4-fluorophenoxy)phenyl)propanamide] | ≤ 300 nM |
| O=C(CN1CCSCC1)N[C@@H](COCc1ccccc1)C(=O)Nc1ccc(Oc2ccc(F)cc2)cc1 [Compound 266, (S)-3-(benzyloxy)-N-(4-(4-fluorophenoxy)phenyl)-2-(2-thiomorpholinoacetamido)propanamide] | 300 to 1000 nM |
| O=C(Nc1ccc(Oc2ccc(F)cc2)cc1)[C@@H]1C[C@@H](Cc2ccc(F)cc2F)CN1C(=O)Cn1ccnn1 [Compound 267, (2S,4R)-1-(2-(1H-1,2,3-triazol-1-yl)acetyl)-4-(2,4-difluorobenzyl)-N-(4-(4-fluorophenoxy)phenyl)pyrrolidine-2-carboxamide] | ≤ 300 nM |
| O=C(Nc1ccc(Oc2ccc(F)cc2)cc1)[C@@H]1C[C@@H](Cc2cccc(Cl)c2)CN1C(=O)Cn1nccn1 [Compound 268, (2S,4R)-1-(2-(2H-1,2,3-triazol-2-yl)acetyl)-4-(3-chlorobenzyl)-N-(4-(4-fluorophenoxy)phenyl)pyrrolidine-2-carboxamide] | ≤ 300 nM |
| CC(=O)NC(COCc1ccccc1)C(=O)Nc1ccc(Oc2ccccc2)cc1 (stereo not drawn) [Compound 269, N-(2-oxo-1-{[(phenylmethyl)oxy]methyl}-2-{[4-(phenyloxy)phenyl]amino}ethyl)acetamide] | 300 to 1000 nM |
